The results in this text go back to PubChem BioAssay AID1259411 (Chemical Carcinogenesis Research Information System (CCRIS), 2018).

Structures are written as SMILES. Activity calls are given as the source filed them. No rule for the calls is given here.

The data set has as its system rodent carcinogenicity bioassays, tumor incidence. The experiment in a line: CCRIS carcinogenicity studies. In a few lines:
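Archive of carcinogenicity, mutagenicity, tumor promotion and tumor inhibition results drawn from journals, NCI reports and other sources, expert-reviewed; covers 1985-2011 and is no longer updated.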

For `CC=O`, the carcinogen call (Species: RAT, Strain/Sex: WISTAR/FEMALE, Route: INHALATION, Dose: 0, 750, 1500, 3000 PPM 6 HR/D 5 D/WK AFTER 4 MO HIGH DOSE REDUCED TO 2150 PPM THEN 1500 PPM AT 6 MO AND 1000 PPM AT 12 M, Dose: 0, 750, 1500, 3000 PPM 6 HR/D 5 D/WK AFTER 4 MO HIGH DOSE REDUCED TO 2150 PPM THEN 1500 PPM AT 6 MO AND 1000 PPM AT 12 M, Tumor Site: Type of Lesion: NASAL CAVITY: TUMOR) was “active; positive” and the carcinogen call (Species: RAT, Strain/Sex: WISTAR/MALE, Route: INHALATION, Dose: 0, 750, 1500, 3000 PPM 6 HR/D 5 D/WK AFTER 4 MO HIGH DOSE REDUCED TO 2150 PPM THEN 1500 PPM AT 6 MO AND 1000 PPM AT 12 M, Dose: 0, 750, 1500, 3000 PPM 6 HR/D 5 D/WK AFTER 4 MO HIGH DOSE REDUCED TO 2150 PPM THEN 1500 PPM AT 6 MO AND 1000 PPM AT 12 M, Tumor Site: Type of Lesion: NASAL CAVITY: TUMOR) is “active; positive”.
For the compound `P`, the carcinogen call was “inactive; negative” (Species: RAT, Strain/Sex: F344/FEMALE, Route: INHALATION, Dose: 0, 0.3, 1.0, 3.0 PPM 6 HR/D 5 D/WK FOR 104 WK (STUDY DURATION: 104 WK), Dose: 0, 0.3, 1.0, 3.0 PPM 6 HR/D 5 D/WK FOR 104 WK (STUDY DURATION: 104 WK)) and “inactive; negative” (Species: RAT, Strain/Sex: F344/MALE, Route: INHALATION, Dose: 0, 0.3, 1.0, 3.0 PPM 6 HR/D 5 D/WK FOR 104 WK (STUDY DURATION: 104 WK), Dose: 0, 0.3, 1.0, 3.0 PPM 6 HR/D 5 D/WK FOR 104 WK (STUDY DURATION: 104 WK)).
On to `O=Nc1ccc(Nc2ccccc2)cc1`, for which the carcinogen call (Species: MOUSE, Strain/Sex: B6C3F1/FEMALE, Route: ORAL, Dose: 0, 4254, 9000 PPM IN DIET, TWA, Dose: 0, 4254, 9000 PPM IN DIET, TWA) was “inactive; negative”; the carcinogen call (Species: MOUSE, Strain/Sex: B6C3F1/MALE, Route: ORAL, Dose: 0, 4254, 9000 PPM IN DIET, TWA, Dose: 0, 4254, 9000 PPM IN DIET, TWA, Tumor Site: Type of Lesion: LIVER: HEPATOCELLULAR ADENOMA OR CARCINOMA) is “active; positive”; the carcinogen call (Species: RAT, Strain/Sex: F344/FEMALE, Route: ORAL, Dose: 0, 2500, 5000 PPM IN DIET, Dose: 0, 2500, 5000 PPM IN DIET) was “inactive; negative”; the carcinogen call (Species: RAT, Strain/Sex: F344/MALE, Route: ORAL, Dose: 0, 2500, 5000 PPM IN DIET, Dose: 0, 2500, 5000 PPM IN DIET, Tumor Site: Type of Lesion: LIVER: HEPATOCELLULAR CARCINOMA OR NEOPLASTIC NODULE) was “active; positive”.
In the case of `CC(C)CN(N=O)C(N)=O`, the carcinogen call (Species: RAT, Strain/Sex: DONRYU/FEMALE, Route: ORAL, Dose: 100, 200, 400 PPM IN DRINKING WATER, Dose: 100, 200, 400 PPM IN DRINKING WATER, Tumor Site: Type of Lesion: DUODENUM: BENIGN HEMANGIOENDOTHELIOMA, MALIGNANT HEMANGIOENDOTHELIOMA) is “active; positive”.
With `ClC1=C(Cl)[C@]2(Cl)[C@@H]3[C@@H]4C[C@@H]([C@H]5O[C@@H]45)[C@@H]3[C@@]1(Cl)C2(Cl)Cl`, the carcinogen call by setting is: (Species: MOUSE, Strain/Sex: B6C3F1/FEMALE, Route: ORAL, Dose: 0, 2.5, 5 PPM IN DIET FOR 80 WK (STUDY DURATION: 90-93 WK), Dose: 0, 2.5, 5 PPM IN DIET FOR 80 WK (STUDY DURATION: 90-93 WK)) “inactive; negative”; (Species: MOUSE, Strain/Sex: B6C3F1/MALE, Route: ORAL, Dose: 0, 2.5, 5 PPM IN DIET FOR 80 WK (STUDY DURATION: 90-93 WK), Dose: 0, 2.5, 5 PPM IN DIET FOR 80 WK (STUDY DURATION: 90-93 WK), Tumor Site: Type of Lesion: LIVER: HEPATOCELLULAR CARCINOMA) “equivocal”; (Species: MOUSE, Strain/Sex: B6C3F1/MALE, Route: ORAL, Dose: 0, 2.5, 5 PPM IN DIET FOR 80 WK (STUDY DURATION: 91-93 WK), Dose: 0, 2.5, 5 PPM IN DIET FOR 80 WK (STUDY DURATION: 91-93 WK), Tumor Site: Type of Lesion: LIVER: HEPATOCELLULAR CARCINOMA) “active; positive”; (Species: MOUSE, Strain/Sex: B6C3F1/MALE, Route: ORAL, Dose: 0, 10 PPM IN DIET FOR 85 WK (STUDY DURATION: 132 WK), Tumor Site: Type of Lesion: LIVER: TUMORS) “active; positive”; (Species: MOUSE, Strain/Sex: BALB/MALE, Route: ORAL, Dose: 0, 10 PPM (WT/WT) IN CORN OIL ADDED TO DIET FOR 75 WK (STUDY DURATION: 75 WK), Tumor Site: Type of Lesion: LIVER: HEPATOCELLULAR ADENOMA, HEPATOCELLULAR CARCINOMA) “active; positive”; (Species: MOUSE, Strain/Sex: C3H/MALE, Route: ORAL, Dose: 0, 10 PPM IN DIET FOR 85 WK (STUDY DURATION: 132 WK), Tumor Site: Type of Lesion: LIVER: TUMORS) “active; positive”. Further, the carcinogen call reads like this: (Species: MOUSE, Strain/Sex: C57BL/MALE, Route: ORAL, Dose: 0, 10 PPM IN DIET FOR 85 WK (STUDY DURATION: 132 WK), Tumor Site: Type of Lesion: LIVER: TUMORS) “active; positive”; (Species: MOUSE, Strain/Sex: CF-1/MALE,FEMALE, Route: ORAL, Dose: 0, 0.1, 1, 2.5, 5, 10, 20 PPM IN DIET CONTINUOUSLY, Dose: 0, 0.1, 1, 2.5, 5, 10, 20 PPM IN DIET CONTINUOUSLY, Tumor Site: Type of Lesion: LIVER) “active; positive”; (Species: MOUSE, Strain/Sex: CF-1/MALE,FEMALE, Route: ORAL, Dose: 0, 0.1, 1.0, 10 PPM IN DIET FOR 132 WK, Dose: 0, 0.1, 1.0, 10 PPM IN DIET FOR 132 WK, Tumor Site: Type of Lesion: LIVER) “active; positive”; (Species: MOUSE, Strain/Sex: CF-1/MALE,FEMALE, Route: ORAL, Dose: 0, 1.25, 2.5, 5, 10, 20 PPM IN DIET FOR 128 WK, Dose: 0, 1.25, 2.5, 5, 10, 20 PPM IN DIET FOR 128 WK, Tumor Site: Type of Lesion: LIVER) “active; positive”; (Species: MOUSE, Strain/Sex: CF-1/MALE,FEMALE, Route: ORAL, Dose: 0, 10 PPM IN DIET FOR 2 YR OR MORE, Tumor Site: Type of Lesion: LIVER) “active; positive”; (Species: MOUSE, Strain/Sex: CF-1/MALE,FEMALE, Route: ORAL, Dose: 0, 10 PPM IN DIET FOR UP TO 110 WK, Tumor Site: Type of Lesion: LIVER: HEPATOCELLULAR TUMOR) “active; positive”. Moreover, the carcinogen call is, setting by setting: (Species: MOUSE, Strain/Sex: CF-1/MALE,FEMALE, Route: ORAL, Dose: 10 PPM IN DIET FOR 0, 2, 4, 8, 16, 32 OR 64 WK, Tumor Site: Type of Lesion: LIVER: HEPATOCELLULAR TUMOR) “active; positive”; (Species: RAT, Strain/Sex: OSBORNE-MENDEL/FEMALE, Route: ORAL, Dose: 0, 29, 65 PPM TWA, IN DIET FOR 59-80 WK (STUDY DURATION: 110-111 WK), Dose: 0, 29, 65 PPM TWA, IN DIET FOR 59-80 WK (STUDY DURATION: 110-111 WK)) “inactive; negative”; (Species: RAT, Strain/Sex: OSBORNE-MENDEL/MALE, Route: ORAL, Dose: 0, 29, 65 PPM TWA, IN DIET FOR 59-80 WK (STUDY DURATION: 110-111 WK), Dose: 0, 29, 65 PPM TWA, IN DIET FOR 59-80 WK (STUDY DURATION: 110-111 WK)) “inactive; negative”.
For `CC(=O)N(O)c1ccc(/C=C/c2ccccc2)cc1`, the carcinogen call reads like this: (Species: RAT, Strain/Sex: STRAIN-CD/FEMALE, Route: INTRAPERITONEAL, Dose: 0, 10 UMOL/KG BW 2/WK FOR 6 WK (STUDY DURATION: 62 WK), Tumor Site: Type of Lesion: LIVER: NEOPLASTIC NODULE, MAMMARY GLAND: TUMOR, EAR DUCT: TUMOR, PITUITARY GLAND: CARCINOMA, Tumor Site: Type of Lesion: LIVER: NEOPLASTIC NODULE, MAMMARY GLAND: TUMOR, EAR DUCT: TUMOR, PITUITARY GLAND: CARCINOMA) “active; positive”; (Species: RAT, Strain/Sex: STRAIN-CD/MALE, Route: INTRAPERITONEAL, Dose: 0, 10 UMOL/KG BW 2/WK FOR 6 WK (STUDY DURATION: 62 WK), Tumor Site: Type of Lesion: TESTICLE: MESOTHELIOMA, PANCREAS(ACINUS): ADENOMA, EAR DUCT: CARCINOMA, Tumor Site: Type of Lesion: TESTICLE: MESOTHELIOMA, PANCREAS(ACINUS): ADENOMA, EAR DUCT: CARCINOMA) “active; positive”.
